Results as given in patent US9880171B2, “iASPP phosphorylation and metastatic potential” (LUDWIG INSTITUTE FOR CANCER RESEARCH LTD., priority 2012, dated 2018).
Entries after “also recorded” stand apart in the source; their conditions may differ.

Key:
[1] = system: iASPP modification and p53-iASPP binding in WM278 cells; experiment: iASPP modification and p53 co-immunoprecipitation in WM278 cells; format: cell-based, human
Procedure: For WB, cells were lysed in buffer containing 8 M urea, 1 M thiourea, 0.5% CHAPS, 50 mM DTT, and 24 mM spermine. A total of 40 μg of protein extract was loaded per lane into SDS-polyacrylamide gels. Gels were transferred onto nitrocellulose membrane (Protran) and the resulting blots incubated first with primary antibody overnight at 4° C. and then with the appropriate secondary horseradish peroxidize-conjugated antibody (Dako). The results were visualized by enhanced chemiluminescent detection (Amersham Biosciences) using X-ray film (Fujifilm). For cell lysate immunoprecipitation, cells were dissolved in NP40 buffer (50 mM Tris-HCl pH 8.0, 150 mM NaCl, 1% NP-40) with protease inhibitor cocktail mix (Roche Diagnostics). Cells were further thoroughly broken by ultrasonication, followed by spinning for 1 hour. Achieved suspension was adjusted to 1-2 mg/ml using NP40 buffer and incubated with 20 μl nickel beads, glutathione beads, or protein A beads (with 2 μg required antibody) for 2 h at room temperature. The beads were washed for four times with NP40 buffer, boiled for 5 min in Laemmli sample buffer, and applied for Western blotting. For pure protein immunoprecipitation, 5-10 μg purified proteins were mixed in NP40 buffer with 1 mg/ml BSA for 2 h at room temperature.

[2] = system: p53 expression in SK-MEL37, WM278 and Me300 cells; experiment: p53 level after Nutlin3 treatment, human melanoma cells; format: cell-based
Procedure: FIG. 20. Restoring p53 by inhibiting mdm2 and iASPP suppresses melanoma growth in vitro and in vivo. FIG. 20A. H1299 cells were treated with DMSO or 10 μM nocodazole in the presence or absence of 2 or 10 μM of mitosis-related kinase inhibitors as indicated. […] FIG. 20B. Left panel: representative p53 level after Nutlin3 treatment for 24 hours in a variety of cells. Right bar graphs show the sub-G1 proportion of WM278 after treatment as that described in FIG. 19B (in upper panel, 10 μM and 20 μM Nutlin3 were used in parallel for comparison). From left to right of the upper right bar graph of FIG. 20B, the bars correspond to DMSO, Nut and JNJ+Nut, respectively. From left to right of the bottom bar graph of FIG. 20B, the bars correspond to DMSO, JNJ, Nut and JNJ+Nut, respectively. FIG. 20C. Me300, SK-MEL37, and B16 cells were treated as above (For B16 panel, 10 μM Nutlin3 was used) and sub-G1 proportion was analyzed. In (B) and (C), the bar graphs (mean±SD) were derived from three independent experiments. *p<0.05. FIG. 20D. Left panel: untreated B16 cells were subcutaneously injected into mice at day 1. […] Compound administration and tumor size measurement were repeated every two days from day 7 onwards. Bar graphs are shown as mean±SD (*p<0.05, n=6). FIG. 20E. Lower panels show representative images of isolated tumors. Right panel: representative H & E staining in B16 tumor section. Bar=20 μm. […]

iASPP(-/-)MEFs = experiment: apoptosis markers (c-PARP, c-Caspase 3) in Ras and E1A transformed iASPP(-/-) MEFs; format: cell-based, mouse; conditions: vector transfected iASPP(-/-)MEFs, 24 hours
Procedure: FIG. 9. […] A. iASPP S84D/S113D binds p53 better than WT iASPP in vitro. in vitro translated iASPP-V5 (WT) or its mutant iASPP(S84D/S113D) (S84D/S113D) (Input) were incubated with nickel beads that were pre-bound with either p53(2-193)-His (p53) or BSA (BSA) to carry out an immunoprecipitation assay (IP). The amount of iASPP that was co-immunoprecipitated with p53 was detected by an anti-V5 antibody (iASPP V5 panel) whereas the amount of p53 immunoprecipitated was detected by an anti-His antibody (p53(2-193)-His panel). B iASPP S84D/S113D binds p53 better than WT iASPP in transfected cells. iASPP-V5 (WT) or its mutant iASPP(S84D/S113D) (S84D/S113D) and p53 were co-transfected in H1299 cells (Input). […] The amount of p53 pulled down is shown in (p53 panel) whereas p53 bound iASPP was determined by anti-V5 antibody (iASPP V5 panel). […] The expression levels of known apoptosis markers were detected in immunoblotting using D214 or D175 to detect cleaved PARP (c-PARP) or caspase 3 (c-caspase 3) respectively. […] Cells were dissolved in urea buffer and apoptosis markers (cleaved PARP, caspase-3) were determined by WB.
The anti-apoptotic function of iASPP and its mutant iASPP(S84D/S113D) was tested in Ras and E1A transformed iASPP(−/−)MEFs (referred to as iASPP(−/−)MEFs). […] Apoptosis was measured by the presence of cleaved PARP (c-PARP) or active caspase 3 (c-Caspase 3). […]

Row | Compound | amount of modified iASPP ([1]; 0.4 μM JNJ or 10 μM nocodazole overnight) | binding of iASPP to p53 (co-immunoprecipitation) ([1]; 0.4 μM JNJ, listed as JNJ) | optimal concentration of Nutlin3 to induce maximal p53 expression ([2]; SK-MEL37) [µM] | optimal concentration of Nutlin3 to induce maximal p53 expression ([2]; WM278 and Me300 cells) [µM] | apoptosis (increase in c-PARP and c-Caspase 3) (iASPP(-/-)MEFs)
1 | Nc1nc(Nc2ccc(S(N)(=O)=O)cc2)nn1C(=O)c1c(F)cccc1F [JNJ-7706621] | reduced the amount of modified iASPP | failed to co-immunoprecipitate iASPP; also recorded: able to prevent iASPP from binding to p53 | – | – | –
2 | COc1ccc(C2=N[C@@H](c3ccc(Cl)cc3)[C@@H](c3ccc(Cl)cc3)N2C(=O)N2CCNC(=O)C2)c(OC(C)C)c1 [Nutlin3] | – | – | 2 | 20 | apoptosis was detected
